The test system of assay [1] is TAS2R4 in human anagen hair follicles. As to the kind of experiment: Activation of TAS2R4 with Rebaudioside A in cultured hair follicles. The assay is classed as cell-based. On the procedure: For analyzing the effect of activating TAS2R4 by the agonist Rebaudioside A, human anagen hair follicles from 2 donors were cultured in WEM medium supplemented with 2 mM L-glutamine, 10 ng/mL hydrocortisone, 10 μg/mL insulin and 1% penicillin/streptomycin mix (WCM medium), and treated either with 200 μM Rebaudioside A (Sigma-Aldrich, cat. 01432) diluted in DMSO or vehicle (0.5% DMSO in WCM medium) according to the following procedure:
(§1) Day 0: Isolation of anagen hair follicles
Day 1: Change WCM media, application of the substance corresponding to experimental groups (control group: 0.5% DMSO, experimental group: 200 μM Rebaudioside A)
(§2) Day 6: Collection and freezing of hair follicles for analyses

In assay [2] the test system is TAS2R4 in anagen hair follicles. As to the kind of experiment: Inactivation of TAS2R4 with BCML in cultured hair follicles. The class given is cell-based, human. On the procedure:
For analyzing the effect of inactivating TAS2R4, by the inverse agonist Nα,Nα-bis(carboxymethyl)-l-lysine (BCML), hair follicles were cultured in WEM medium supplemented with 2 mM L-glutamine, 10 ng/mL hydrocortisone, 10 μg/mL insulin and 1% penicillin/streptomycin mix (WCM medium), and treated either with 120 μM BCML (Sigma-Aldrich, cat. 14580) diluted in WCM or vehicle (WCM medium) according to the following procedure:
as §1
Day 1: Change media, application of the substance corresponding to experimental groups (control group: WCM, experimental group: 120 μM BCML)
Day 7: Collection and freezing of hair follicles for analyses

Assay [3] shares this test system. As to the kind of experiment: Activation of TAS2R4 with Stevioside in cultured hair follicles. The class given is cell-based, human. On the procedure:
To determine the effect of activating TAS2R4 by the agonist Stevioside, anagen hair follicles were cultured in WEM medium supplemented with 2 mM L-glutamine, 10 ng/mL hydrocortisone, 10 μg/mL insulin and 1% penicillin/streptomycin mix (WCM medium), and treated either with 200 μM Stevioside (Sigma-Aldrich, cat. 50956) diluted in DMSO or vehicle (0.2% DMSO in WCM medium) according to the following procedure: Day 0: Isolation of anagen hair follicles Day 1: Change media, application of the substance corresponding to experimental groups (control group: 0.2% DMSO, experimental group: 200 μM Stevioside) Day 2: Rest Day 3: Change media Day 4: Rest Day 5: Change media Day 6: Rest Day 7: Collection and freezing of hair follicles for analyses

Assay [4] has the same test system. As to the kind of experiment: Activation of TAS2R4 with Rubusoside in cultured hair follicles. The class given is cell-based, human. Here is the method:
For analyzing the effect of activating TAS2R4 by the agonist Rubusoside, hair follicles were cultured in WEM medium supplemented with 2 mM L-glutamine, 10 ng/mL hydrocortisone, 10 μg/mL insulin and 1% penicillin/streptomycin mix (WCM medium), and treated either with 50 μM Rubusoside (Sigma-Aldrich, cat. 62933) diluted in DMSO or vehicle (0.05% DMSO in WCM medium) according to the following procedure:
as §1
Day 1: Change media, application of the substance corresponding to experimental groups (control group: 0.05% DMSO, experimental group: 50 μM Rubusoside)
as §2

The mark [5] stands for this setting: 200 μM Rebaudioside A vs 0.5% DMSO, collection day 6.
[6] abbreviates: 120 μM BCML vs vehicle (WCM), collection day 7.
[7] abbreviates: 200 μM Stevioside vs 0.2% DMSO, collection day 7.

Turning to `C=C1C[C@@]23CC[C@H]4[C@@](C)(CCC[C@@]4(C)C(=O)O[C@@H]4O[C@H](CO)[C@@H](O)[C@H](O)[C@H]4O)[C@@H]2CC[C@]1(O[C@@H]1O[C@H](CO)[C@@H](O)[C@H](O[C@@H]2O[C@H](CO)[C@@H](O)[C@H](O)[C@H]2O)[C@H]1O[C@@H]1O[C@H](CO)[C@@H](O)[C@H](O)[C@H]1O)C3` [Rebaudioside A], in assay [1] (200 μM Rebaudioside A vs 0.5% DMSO, 2 donors, collection day 6), the “proportion of hair follicles in catagen stage” value is given as “increases”. Also, in assay [1] (setting [5]), the apoptosis result is “increases”, the “hair matrix keratinocyte proliferation” value is listed as “decreases” and the pigmentation result is listed as “hypopigmentation”. For the same compound, the hair growth result in assay [1] (summary statement, Rebaudioside A) was “hair growth inhibition”.
For `NCCCC[C@@H](C(=O)O)N(CC(=O)O)CC(=O)O` [BCML, Nα,Nα-bis(carboxymethyl)-l-lysine], in assay [2] (setting [6]), the apoptosis result is “does not affect”, the “hair matrix keratinocyte proliferation” value is “increases”, the pigmentation entry is given as “increases” and the “proportion of hair follicles in anagen stage” value is “increases”. In addition, the hair growth entry in assay [2] (summary statement, anagen hair follicles, BCML) is “hair growth promotion”.
`C=C1C[C@@]23CC[C@H]4[C@@](C)(CCC[C@@]4(C)C(=O)O[C@@H]4O[C@H](CO)[C@@H](O)[C@H](O)[C@H]4O)[C@@H]2CC[C@]1(O[C@@H]1O[C@H](CO)[C@@H](O)[C@H](O)[C@H]1O[C@@H]1O[C@H](CO)[C@@H](O)[C@H](O)[C@H]1O)C3` [Stevioside]: in assay [3] (setting [7]), the apoptosis result was “does not affect”, the “hair matrix keratinocyte proliferation” value is given as “decreases” and the “proportion of hair follicles in catagen stage” value is reported as “increases”. Further, the hair growth result in assay [3] (summary statement, Stevioside) is reported as “hair growth inhibition”.
As to `C=C1C[C@@]23CC[C@H]4[C@@](C)(CCC[C@@]4(C)C(=O)O[C@@H]4O[C@H](CO)[C@@H](O)[C@H](O)[C@H]4O)[C@@H]2CC[C@]1(O[C@@H]1O[C@H](CO)[C@@H](O)[C@H](O)[C@H]1O)C3` [Rubusoside], in assay [4] (50 μM Rubusoside vs 0.05% DMSO, collection day 6), the “proportion of human hair follicles in catagen stage” value is listed as “increases”. Further, the hair growth entry in assay [4] (summary statement, Rubusoside) is “hair growth inhibition”.

Values taken from patent US20220168206A1, “ACTIVE AGENT FOR USE IN HAIR GROWTH REGULATION” (MONASTERIUM LABORATORY SKIN & HAIR RESEARCH SOLUTIONS GMBH, priority 2019, published 2022).
